Measured values taken from publication PMC9203742 (Nature Communications, 2022).
Values joined by “and” are separate entries in the source; they are usually repeats but may differ in a detail not shown here. Identical values can stand only once.

Tests used:
[1] = test system: HEK293 cells, vector control; experiment: Fura-2 Ca2+ imaging in HEK293 cells transfected with control vector (Vec); type: cell-based; details: Fig.1e; as to Ca2+ response of individual cells (source data Suppl Fig1), Vec: test concentration or dose not given here
Source text: Supplement 41467_2022_30828_MOESM6_ESM.zip/Ojima et al_source data_Main Figure.xlsx, sheet "Fig.1e" | column: Vec

mGlu1 A59H/N264H mutant = molecular target: T1, mGlu1 A59H/N264H mutant (Rattus norvegicus, UniProt P23385, A59H/N264H); experiment: Fura-2 Ca2+ imaging in HEK293 cells expressing mGlu1 A59H/N264H; type: cell-based
T1 construct: expressed in transfected cells; host or cells: HEK293

[2] = test system: mGlu1 construct not given; experiment: Fura-2 Ca2+ imaging in HEK293 cells, source data Suppl Fig1, middle group (c9-c17); construct not given; type: cell-based, rat; details: single-cell values, cells #15-#20; middle group of third block
Source text: (§1) Supplement 41467_2022_30828_MOESM6_ESM.zip/Ojima et al_source data_Suppl Fig.xlsx, sheet "Suppl Fig1" | column: Glu; NiCl2; CuCl2; ZnCl2; CdCl2; Na2PdCl2; Pd(bpy)

mGlu1 K61H/N264H mutant = molecular target: T2, mGlu1 K61H/N264H mutant (Rattus norvegicus, UniProt P23385, K61H/N264H); experiment: Fura-2 Ca2+ imaging in HEK293 cells expressing mGlu1 K61H/N264H; type: cell-based
T2 construct: expressed in transfected cells; host or cells: HEK293

WT mGlu1 = molecular target: T3, WT mGlu1 (Rattus norvegicus, UniProt P23385); type: cell-based; also: test concentration or dose not given here
T3 construct: expressed in transfected cells; host or cells: HEK293

[3] = test system: HEK293 cells, vector control; experiment: Fura-2 Ca2+ imaging in HEK293 cells transfected with control vector (Vec); type: cell-based; details: single-cell values #1-#20; as to Ca2+ response of individual cells (source data Suppl Fig1), Vec: test concentration or dose not given here
mGlu1 P58H/N264H mutant = molecular target: T4, mGlu1 P58H/N264H mutant (Rattus norvegicus, UniProt P23385, N264H/P58H); experiment: Fura-2 Ca2+ imaging in HEK293 cells expressing mGlu1 P58H/N264H; type: cell-based
T4 construct: expressed in transfected cells; host or cells: HEK293

mGlu1 A59H/A265H mutant [4] = molecular target: T5, mGlu1 A59H/A265H mutant (Rattus norvegicus, UniProt P23385, A265H/A59H); experiment: Fura-2 Ca2+ imaging in HEK293 cells expressing mGlu1 A59H/A265H; type: cell-based; details: Fig.1e
T5 construct: expressed in transfected cells; host or cells: HEK293

[5] = test system: mGlu1 construct not given; experiment: Fura-2 Ca2+ imaging in HEK293 cells, source data Suppl Fig1, left group (c0-c8); construct not given; type: cell-based, rat; details: single-cell values, cells #15-#20; left group of third block
Source text: as §1

mGlu1 A59H/A265H mutant [6] = molecular target: T5, mGlu1 A59H/A265H mutant; experiment: Fura-2 Ca2+ imaging in HEK293 cells expressing mGlu1 A59H/A265H; type: cell-based; details: single-cell values
mGlu1 A59H/G266H mutant [7] = molecular target: T6, mGlu1 A59H/G266H mutant (Rattus norvegicus, UniProt P23385, A59H/G266H); experiment: Fura-2 Ca2+ imaging in HEK293 cells expressing mGlu1 A59H/G266H; type: cell-based; details: Fig.1e; as to Ca2+ response (delta ratio), A59H/G266H: test concentration or dose not given here
T6 construct: expressed in transfected cells; host or cells: HEK293

mGlu1 A59H/G266H mutant [8] = molecular target: T6, mGlu1 A59H/G266H mutant; experiment: as above; type: cell-based; details: single-cell values
mGlu1 P57H/N264H mutant = molecular target: T7, mGlu1 P57H/N264H mutant (Rattus norvegicus, UniProt P23385, N264H/P57H); experiment: Fura-2 Ca2+ imaging in HEK293 cells expressing mGlu1 P57H/N264H; type: cell-based
T7 construct: expressed in transfected cells; host or cells: HEK293

mGlu1 E60H/N264H mutant = molecular target: T8, mGlu1 E60H/N264H mutant (Rattus norvegicus, UniProt P23385, E60H/N264H); experiment: Fura-2 Ca2+ imaging in HEK293 cells expressing mGlu1 E60H/N264H; type: cell-based
T8 construct: expressed in transfected cells; host or cells: HEK293

[9] = test system: mGlu1 construct not given; experiment: Fura-2 Ca2+ imaging in HEK293 cells, source data Suppl Fig1, right group (c18-c26); construct not given; type: cell-based, rat; details: single-cell values, cells #15-#20; right group of third block
Source text: as §1

T7 sequence (P23385 19-1199 P57H/N264H): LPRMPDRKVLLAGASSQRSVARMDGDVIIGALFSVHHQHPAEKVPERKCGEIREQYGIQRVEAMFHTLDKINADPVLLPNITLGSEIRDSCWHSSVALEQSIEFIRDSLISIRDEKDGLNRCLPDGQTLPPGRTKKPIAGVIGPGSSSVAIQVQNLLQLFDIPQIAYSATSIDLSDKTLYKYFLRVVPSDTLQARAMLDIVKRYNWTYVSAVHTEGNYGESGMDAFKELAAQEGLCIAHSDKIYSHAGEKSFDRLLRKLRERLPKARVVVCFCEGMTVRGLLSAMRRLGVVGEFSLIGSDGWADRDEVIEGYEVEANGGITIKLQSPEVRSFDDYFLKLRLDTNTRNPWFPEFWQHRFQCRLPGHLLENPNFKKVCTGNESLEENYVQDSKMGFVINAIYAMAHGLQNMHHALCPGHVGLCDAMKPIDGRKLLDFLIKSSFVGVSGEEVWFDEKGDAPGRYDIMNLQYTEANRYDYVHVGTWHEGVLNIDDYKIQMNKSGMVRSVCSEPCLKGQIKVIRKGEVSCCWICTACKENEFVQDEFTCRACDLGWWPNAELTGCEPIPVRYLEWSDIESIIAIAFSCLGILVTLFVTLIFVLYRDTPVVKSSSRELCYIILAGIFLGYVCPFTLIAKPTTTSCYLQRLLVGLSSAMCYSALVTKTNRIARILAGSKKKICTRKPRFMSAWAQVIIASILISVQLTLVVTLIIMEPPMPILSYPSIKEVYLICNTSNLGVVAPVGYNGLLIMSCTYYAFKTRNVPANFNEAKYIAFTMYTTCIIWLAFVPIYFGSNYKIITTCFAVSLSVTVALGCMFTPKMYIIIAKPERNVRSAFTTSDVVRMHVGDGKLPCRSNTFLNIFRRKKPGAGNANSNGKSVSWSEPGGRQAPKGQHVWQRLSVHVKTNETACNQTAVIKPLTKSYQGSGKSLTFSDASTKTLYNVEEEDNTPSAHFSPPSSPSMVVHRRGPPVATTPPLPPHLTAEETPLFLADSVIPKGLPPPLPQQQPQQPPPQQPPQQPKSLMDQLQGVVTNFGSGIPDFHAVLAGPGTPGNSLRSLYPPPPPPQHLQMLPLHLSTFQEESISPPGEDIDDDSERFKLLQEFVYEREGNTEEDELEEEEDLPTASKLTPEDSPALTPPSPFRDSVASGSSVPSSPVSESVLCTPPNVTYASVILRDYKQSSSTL
T2 sequence (P23385 19-1199 K61H/N264H): as the sequence (P23385 19-1199 P57H/N264H) above, with H39P, K43H counted along it
T4 sequence (P23385 19-1199 P58H/N264H): as the sequence (P23385 19-1199 P57H/N264H) above, with H39P, P40H counted along it
T3 sequence (P23385 19-1199): as the sequence (P23385 19-1199 P57H/N264H) above, with H39P, H246N counted along it
T6 sequence (P23385 19-1199 A59H/G266H): as the sequence (P23385 19-1199 P57H/N264H) above, with H39P, A41H, H246N, G248H counted along it
T8 sequence (P23385 19-1199 E60H/N264H): as the sequence (P23385 19-1199 P57H/N264H) above, with H39P, E42H counted along it
T5 sequence (P23385 19-1199 A59H/A265H): as the sequence (P23385 19-1199 P57H/N264H) above, with H39P, A41H, H246N, A247H counted along it
T1 sequence (P23385 19-1199 A59H/N264H): as the sequence (P23385 19-1199 P57H/N264H) above, with H39P, A41H counted along it

[Cl][Cd][Cl] [CdCl2]
Ca2+ response (delta ratio), Vec [1]: -0.03216
Ca2+ response (delta ratio), A59H/N264H (mGlu1 A59H/N264H mutant; Fig.1e): 0.02484
Ca2+ response of individual cells (source data Suppl Fig1), A59H/N264H (mGlu1 A59H/N264H mutant; single-cell values #1-#20, A59H/N264H): 0.2588 and -0.01875 and -0.0009538 and 0.004669 and -0.003354 and -0.0081 and -0.03695 and -0.009438 and -0.004808 and -0.01072 and -0.01152 and -0.03409 and 0.4867 and -0.01683 and -0.02968 and -0.006508 and -0.0288 and -0.01271 and -0.01325 and -0.006908
Ca2+ response of individual cells (source data, sheet Suppl Fig1) [2]: 0.01055 and 0.01355 and -0.009131 and -0.01706 and 0.009777 and -0.01645
Ca2+ response (delta ratio), K61H/N264H (mGlu1 K61H/N264H mutant; Fig.1e): 0.01695
Ca2+ response of individual cells (source data Suppl Fig1), K61H/N264H (mGlu1 K61H/N264H mutant; single-cell values, K61H/N264H): 0.003946 and -0.03622 and -0.01614 and -0.01244 and -0.01964 and -0.05083 and -0.008715 and -0.008331 and -0.02813 and 0.002531 and -0.03307 and -0.01172 and 0.5817 and -0.01188
Ca2+ response (delta ratio), WT (WT mGlu1; Fig.1e): 0.005362
Ca2+ response of individual cells (source data Suppl Fig1), WT (WT mGlu1; single-cell values #1-#20, WT): 0.0129 and 0.04075 and 0.009069 and 0.006385 and -0.009131 and -0.006215 and 0.2594 and 0.005608 and -0.007808 and -0.007346 and 0.0007769 and -0.1317 and -0.001 and -0.06408 and -0.004269 and 0.01558 and -0.01997 and 0.01184 and 0.001662 and -0.005277
Ca2+ response of individual cells (source data Suppl Fig1), Vec [3]: -0.01042 and -0.01834 and -0.01502 and -0.05052 and -0.04072 and -0.03065 and -0.02875 and -0.03001 and -0.006638 and -0.04038 and -0.04515 and -0.04559 and -0.05998 and -0.01618 and -0.0239 and -0.03979 and -0.02847 and -0.03687 and -0.04005 and -0.03582
Ca2+ response (delta ratio), P58H/N264H (mGlu1 P58H/N264H mutant; Fig.1e): -0.005715
Ca2+ response of individual cells (source data Suppl Fig1), P58H/N264H (mGlu1 P58H/N264H mutant; single-cell values #1-#20, P58H/N264H): 0.0003 and -0.006238 and 0.002354 and -0.001808 and -0.01828 and -0.02019 and -0.005077 and -0.009385 and -0.005592 and -0.02068 and -0.009223 and 0.09017 and -0.003262 and -0.06371 and -0.003885 and -0.002246 and -0.002192 and 0.0005231 and -0.03079
Ca2+ response (delta ratio), A59H/A265H (mGlu1 A59H/A265H mutant [4]): 0.02642
Ca2+ response of individual cells (source data, sheet Suppl Fig1) [5]: -0.005954 and 0.01795 and 0.005315 and -0.02397 and -0.001754 and -0.003654
Ca2+ response of individual cells (source data Suppl Fig1), A59H/A265H (mGlu1 A59H/A265H mutant [6]): 0.002869 and 0.004277 and -0.0003846 and 0.01228 and 0.01648 and -0.01175 and -0.03786 and 0.01586 and 0.002777 and 0.3308 and 0.2114 and -0.005654 and -0.02447 and 0.0205
Ca2+ response (delta ratio), A59H/G266H (mGlu1 A59H/G266H mutant [7]): 0.001928
Ca2+ response of individual cells (source data Suppl Fig1), A59H/G266H (mGlu1 A59H/G266H mutant [8]): -0.01723 and 0.01558 and 0.01066 and 0.005608 and 0.01182 and 0.0279 and -0.1123 and -0.0058 and -0.01721 and 0.02262 and 0.01814 and -0.006169 and -0.01936 and 0.04175
Ca2+ response (delta ratio), P57H/N264H (mGlu1 P57H/N264H mutant; Fig.1e): 0.03091
Ca2+ response of individual cells (source data Suppl Fig1), P57H/N264H (mGlu1 P57H/N264H mutant; single-cell values #1-#20, P57H/N264H): -0.01735 and -0.005323 and -0.01104 and -0.01126 and -0.0097 and -0.003008 and -0.01663 and -0.0067 and -0.01865 and 0.6823 and 0.01155 and -0.0096 and 0.03494 and -0.09688 and -0.01634 and 0.024 and 0.009592 and -0.004469 and 0.09844 and -0.01566
Ca2+ response (delta ratio), E60H/N264H (mGlu1 E60H/N264H mutant; Fig.1e): -0.01186
Ca2+ response of individual cells (source data Suppl Fig1), E60H/N264H (mGlu1 E60H/N264H mutant; single-cell values #1-#20, E60H/N264H): -0.009869 and -0.0139 and -0.008638 and -0.01472 and -0.009062 and -0.006669 and -0.004677 and -0.01493 and -0.004954 and 0.001138 and -0.005708 and -0.002215 and 0.01407 and 0.02235 and -0.01174 and -0.009823 and -0.008654 and -0.007631 and -0.02142 and -0.1201
Ca2+ response of individual cells (source data, sheet Suppl Fig1) [9]: 0.03353 and 0.009331 and 0.006908 and 0.01689 and -0.009408 and 0.005315
